Experimental data as given in ChEMBL document CHEMBL1201862, “PubChem BioAssay data set” (2004).
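Growth conditions: 96-well plates. Treatment: test compound, 48 hours, 5 concentrations. Analysis: linear interpolation between bracketing concentrations; unreached endpoints set to highest concentration. GI50 marks 50% less growth.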 Active and inactive are the calls of the source. Cut-off read from the data, not from the text of the source: active = GI50 up to about 1.1 µM and inactive = higher.

Experiments:
Test in all cases: inhibition of tumour cell growth, NCI panel, 48 h
A498 = test system: A498
NCI-H522 = test system: NCI-H522
SNB-78 = test system: SNB-78
HOP-92 = test system: HOP-92
TK-10 = test system: TK-10
SN12C = test system: SN12C
HCC 2998 = test system: HCC 2998
SNB-75 = test system: SNB-75
UACC-257 = test system: UACC-257
HCT-116 = test system: HCT-116
EKVX = test system: EKVX
CAKI-1 = test system: CAKI-1
LOX IMVI = test system: LOX IMVI
OVCAR-4 = test system: OVCAR-4
NCI-H23 = test system: NCI-H23
SK-MEL-2 = test system: SK-MEL-2
MDA-N = test system: MDA-N
MCF7 = test system: MCF7
NCI/ADR-RES = test system: NCI/ADR-RES
PC-3 = test system: PC-3

O=C(Nc1ccccc1)n1cc(-c2ccccn2)c(N2CCOCC2)n1
GI50 (A498): 4.11 µM (inactive)
GI50 (NCI-H522): 2.56 µM (inactive)
GI50 (SNB-78): 24.9 µM (inactive)
GI50 (HOP-92): 16.9 µM (inactive)
GI50 (TK-10): > 100 µM (inactive)
GI50 (SN12C): 35.2 µM (inactive)
GI50 (HCC 2998): 21.7 µM (inactive)
GI50 (SNB-75): 3.78 µM (inactive)
GI50 (UACC-257): 17.7 µM (inactive)
GI50 (HCT-116): 4.29 µM (inactive)
GI50 (EKVX): > 100 µM (inactive)
GI50 (CAKI-1): 13 µM (inactive)
GI50 (LOX IMVI): 5.75 µM (inactive)
GI50 (OVCAR-4): > 100 µM (inactive)

N#CC(c1ccc(Cl)cc1)c1cccc(Cl)n1 (configuration not stated)
GI50 (A498): 74.8 µM (inactive)
GI50 (NCI-H522): 22.4 µM (inactive)
GI50 (SNB-78): 67.3 µM (inactive)
GI50 (HOP-92): 30.2 µM (inactive)
GI50 (TK-10): 33.2 µM (inactive)
GI50 (NCI-H23): 43.3 µM (inactive)
GI50 (SN12C): 54.3 µM (inactive)
GI50 (HCC 2998): 61 µM (inactive)
GI50 (SNB-75): 21.5 µM (inactive)
GI50 (UACC-257): 60.7 µM (inactive)
GI50 (EKVX): 39 µM (inactive)
GI50 (CAKI-1): 25.3 µM (inactive)
GI50 (OVCAR-4): 40 µM (inactive)
GI50 (SK-MEL-2): 54.8 µM (inactive)

CC1=CC(=O)NP(=O)(Oc2ccc(C)cc2)N1 (configuration not stated)
GI50 (A498): > 100 µM (inactive)
GI50 (NCI-H522): > 100 µM (inactive)
GI50 (SNB-78): > 100 µM (inactive)
GI50 (HOP-92): > 100 µM (inactive)
GI50 (TK-10): > 100 µM (inactive)
GI50 (NCI-H23): > 100 µM (inactive)
GI50 (SN12C): > 100 µM (inactive)
GI50 (SNB-75): > 100 µM (inactive)
GI50 (UACC-257): > 100 µM (inactive)
GI50 (HCT-116): > 100 µM (inactive)
GI50 (EKVX): > 100 µM (inactive)
GI50 (CAKI-1): > 100 µM (inactive)
GI50 (LOX IMVI): > 100 µM (inactive)
GI50 (OVCAR-4): > 100 µM (inactive)
GI50 (SK-MEL-2): > 100 µM (inactive)

COc1ccc([C@@H]2OC(=O)C3C2C(=O)O[C@H]3c2ccc(OC)cc2)cc1 (some centres not stated)
GI50 (A498): > 100 µM (inactive)
GI50 (SNB-78): > 100 µM (inactive)
GI50 (HOP-92): 0.209 µM (active)
GI50 (NCI-H23): > 100 µM (inactive)
GI50 (SN12C): > 100 µM (inactive)
GI50 (HCC 2998): > 100 µM (inactive)
GI50 (SNB-75): > 100 µM (inactive)
GI50 (UACC-257): > 100 µM (inactive)
GI50 (HCT-116): > 100 µM (inactive)
GI50 (EKVX): > 100 µM (inactive)
GI50 (CAKI-1): > 100 µM (inactive)
GI50 (OVCAR-4): > 100 µM (inactive)
GI50 (SK-MEL-2): > 100 µM (inactive)

Cc1ccc(C2SCc3nc4ccccc4n32)cc1 (configuration not stated)
GI50 (A498): 3.15 µM (inactive)
GI50 (NCI-H522): 4.74 µM (inactive)
GI50 (HOP-92): 3.74 µM (inactive)
GI50 (TK-10): 3.54 µM (inactive)
GI50 (NCI-H23): 2.72 µM (inactive)
GI50 (SN12C): 3.01 µM (inactive)
GI50 (MDA-N): 0.407 µM (active)
GI50 (HCC 2998): 10.8 µM (inactive)
GI50 (SNB-75): 0.0103 µM (active)
GI50 (UACC-257): 4.79 µM (inactive)
GI50 (HCT-116): 3.11 µM (inactive)
GI50 (EKVX): 5.35 µM (inactive)
GI50 (CAKI-1): 1.52 µM (inactive)
GI50 (MCF7): 4.68 µM (inactive)
GI50 (LOX IMVI): 4.47 µM (inactive)
GI50 (OVCAR-4): 8.77 µM (inactive)
GI50 (NCI/ADR-RES): 2.37 µM (inactive)
GI50 (PC-3): 1.88 µM (inactive)
GI50 (SK-MEL-2): 1.1 µM (active)

CCOC(=O)[C-]([N+]#N)[Si](C)(C)C
GI50 (A498): > 100 µM (inactive)
GI50 (SNB-78): > 100 µM (inactive)
GI50 (HOP-92): > 100 µM (inactive)
GI50 (TK-10): > 100 µM (inactive)
GI50 (NCI-H23): 75.5 µM (inactive)
GI50 (SN12C): > 100 µM (inactive)
GI50 (HCC 2998): > 100 µM (inactive)
GI50 (SNB-75): > 100 µM (inactive)
GI50 (UACC-257): 59.3 µM (inactive)
GI50 (HCT-116): 53.1 µM (inactive)
GI50 (CAKI-1): > 100 µM (inactive)
GI50 (LOX IMVI): 85.9 µM (inactive)
GI50 (OVCAR-4): > 100 µM (inactive)
GI50 (SK-MEL-2): > 100 µM (inactive)

Cc1cccc(C)c1NC(=O)CCC(=O)CC(=O)C(C)C
GI50 (A498): > 100 µM (inactive)
GI50 (NCI-H522): > 100 µM (inactive)
GI50 (SNB-78): > 100 µM (inactive)
GI50 (HOP-92): > 100 µM (inactive)
GI50 (TK-10): > 100 µM (inactive)
GI50 (NCI-H23): > 100 µM (inactive)
GI50 (SN12C): > 100 µM (inactive)
GI50 (HCC 2998): > 100 µM (inactive)
GI50 (SNB-75): > 100 µM (inactive)
GI50 (UACC-257): > 100 µM (inactive)
GI50 (HCT-116): > 100 µM (inactive)
GI50 (EKVX): > 100 µM (inactive)
GI50 (CAKI-1): > 100 µM (inactive)
GI50 (OVCAR-4): > 100 µM (inactive)
GI50 (SK-MEL-2): > 100 µM (inactive)

NC(=O)C(=O)N/N=C1\C(=O)N(c2ccc(Cl)cc2Cl)C(=O)C1C(=O)Nc1ccc(Cl)cc1Cl (configuration not stated)
GI50 (A498): > 100 µM (inactive)
GI50 (NCI-H522): > 100 µM (inactive)
GI50 (SNB-78): > 100 µM (inactive)
GI50 (HOP-92): > 100 µM (inactive)
GI50 (TK-10): > 100 µM (inactive)
GI50 (NCI-H23): > 100 µM (inactive)
GI50 (SN12C): > 100 µM (inactive)
GI50 (HCC 2998): > 100 µM (inactive)
GI50 (SNB-75): 28.8 µM (inactive)
GI50 (UACC-257): > 100 µM (inactive)
GI50 (HCT-116): > 100 µM (inactive)
GI50 (EKVX): > 100 µM (inactive)
GI50 (CAKI-1): > 100 µM (inactive)
GI50 (LOX IMVI): > 100 µM (inactive)
GI50 (SK-MEL-2): > 100 µM (inactive)

c1ccc(COCC2OC3c4ccccc4COC3C2OCc2ccccc2)cc1 (configuration not stated)
GI50 (SNB-78): > 100 µM (inactive)
GI50 (HOP-92): 19.4 µM (inactive)
GI50 (TK-10): > 100 µM (inactive)
GI50 (NCI-H23): 94.8 µM (inactive)
GI50 (SN12C): > 100 µM (inactive)
GI50 (HCC 2998): > 100 µM (inactive)
GI50 (SNB-75): 39.6 µM (inactive)
GI50 (UACC-257): 61.2 µM (inactive)
GI50 (HCT-116): 71.3 µM (inactive)
GI50 (EKVX): > 100 µM (inactive)
GI50 (CAKI-1): 76.9 µM (inactive)
GI50 (OVCAR-4): > 100 µM (inactive)
GI50 (SK-MEL-2): > 100 µM (inactive)
